Reference: patent US9226923B2, “Spirocyclic molecules as protein kinase inhibitors” (Nanjing Allgen Pharma Co. Ltd., priority 2011, dated 2016)

Experiments:
Human ALK = Human ALK (Homo sapiens (Human), UniProt Q9UM73); assay: ALK enzyme inhibition assay (Reaction Biology Corporation); format: biochemical; conditions: poly[Glu:Tyr] (4:1) 0.2 mg/ml, ATP 10 μM; read-out: Inhibitory Activities IC50, ALK
Procedure: (§1) The inhibitory activities of compounds of Formula I were assay at Reaction Biology Corporation, One Great Valley Parkway, Malvern, Pa., USA. Human ALK and cMet enzymes were used and the substrate was a peptide substrate, poly[Glu:Tyr] (4:1) at a concentration of 0.2 mg/ml.

Human cMet = Human cMet (Homo sapiens (Human), UniProt P08581); assay: cMet enzyme inhibition assay (Reaction Biology Corporation); format: biochemical; conditions: poly[Glu:Tyr] (4:1) 0.2 mg/ml, ATP 10 μM; read-out: Inhibitory Activities IC50, cMet
Chain of Human cMet (P08581 25-1390): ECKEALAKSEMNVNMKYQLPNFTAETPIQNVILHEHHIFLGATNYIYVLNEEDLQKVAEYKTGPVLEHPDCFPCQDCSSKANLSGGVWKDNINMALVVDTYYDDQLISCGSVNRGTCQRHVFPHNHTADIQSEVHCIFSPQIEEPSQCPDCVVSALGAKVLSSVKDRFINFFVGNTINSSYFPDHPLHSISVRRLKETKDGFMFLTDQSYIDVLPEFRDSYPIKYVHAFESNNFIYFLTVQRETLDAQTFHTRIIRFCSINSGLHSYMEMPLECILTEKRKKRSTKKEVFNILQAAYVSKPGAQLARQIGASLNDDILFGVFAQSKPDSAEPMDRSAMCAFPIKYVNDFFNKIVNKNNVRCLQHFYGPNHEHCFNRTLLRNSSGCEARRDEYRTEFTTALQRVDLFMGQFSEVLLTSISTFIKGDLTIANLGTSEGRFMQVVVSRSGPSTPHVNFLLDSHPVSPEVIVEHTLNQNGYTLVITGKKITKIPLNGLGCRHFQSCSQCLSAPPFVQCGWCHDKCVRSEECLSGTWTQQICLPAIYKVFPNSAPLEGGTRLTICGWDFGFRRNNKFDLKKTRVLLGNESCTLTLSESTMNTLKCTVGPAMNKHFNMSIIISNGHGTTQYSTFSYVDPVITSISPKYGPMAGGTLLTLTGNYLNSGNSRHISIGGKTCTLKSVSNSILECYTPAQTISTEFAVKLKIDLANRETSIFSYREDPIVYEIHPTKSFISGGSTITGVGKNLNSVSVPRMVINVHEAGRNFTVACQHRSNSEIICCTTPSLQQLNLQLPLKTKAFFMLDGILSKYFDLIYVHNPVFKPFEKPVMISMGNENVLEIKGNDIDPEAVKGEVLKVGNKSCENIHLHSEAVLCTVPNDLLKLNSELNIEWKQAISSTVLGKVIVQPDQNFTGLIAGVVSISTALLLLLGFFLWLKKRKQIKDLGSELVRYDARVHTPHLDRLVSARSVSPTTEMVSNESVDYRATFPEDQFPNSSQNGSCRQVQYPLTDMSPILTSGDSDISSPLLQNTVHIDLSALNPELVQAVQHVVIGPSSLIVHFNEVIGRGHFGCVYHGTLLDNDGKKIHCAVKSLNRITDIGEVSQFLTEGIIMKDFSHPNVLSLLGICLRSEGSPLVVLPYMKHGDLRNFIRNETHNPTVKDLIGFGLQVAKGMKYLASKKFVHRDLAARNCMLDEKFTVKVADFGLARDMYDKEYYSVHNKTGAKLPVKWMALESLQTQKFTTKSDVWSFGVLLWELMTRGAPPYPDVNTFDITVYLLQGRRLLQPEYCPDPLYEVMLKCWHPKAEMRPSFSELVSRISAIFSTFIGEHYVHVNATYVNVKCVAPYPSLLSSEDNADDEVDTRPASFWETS
Procedure: as §1

Chain of Human ALK (Q9UM73 19-1620): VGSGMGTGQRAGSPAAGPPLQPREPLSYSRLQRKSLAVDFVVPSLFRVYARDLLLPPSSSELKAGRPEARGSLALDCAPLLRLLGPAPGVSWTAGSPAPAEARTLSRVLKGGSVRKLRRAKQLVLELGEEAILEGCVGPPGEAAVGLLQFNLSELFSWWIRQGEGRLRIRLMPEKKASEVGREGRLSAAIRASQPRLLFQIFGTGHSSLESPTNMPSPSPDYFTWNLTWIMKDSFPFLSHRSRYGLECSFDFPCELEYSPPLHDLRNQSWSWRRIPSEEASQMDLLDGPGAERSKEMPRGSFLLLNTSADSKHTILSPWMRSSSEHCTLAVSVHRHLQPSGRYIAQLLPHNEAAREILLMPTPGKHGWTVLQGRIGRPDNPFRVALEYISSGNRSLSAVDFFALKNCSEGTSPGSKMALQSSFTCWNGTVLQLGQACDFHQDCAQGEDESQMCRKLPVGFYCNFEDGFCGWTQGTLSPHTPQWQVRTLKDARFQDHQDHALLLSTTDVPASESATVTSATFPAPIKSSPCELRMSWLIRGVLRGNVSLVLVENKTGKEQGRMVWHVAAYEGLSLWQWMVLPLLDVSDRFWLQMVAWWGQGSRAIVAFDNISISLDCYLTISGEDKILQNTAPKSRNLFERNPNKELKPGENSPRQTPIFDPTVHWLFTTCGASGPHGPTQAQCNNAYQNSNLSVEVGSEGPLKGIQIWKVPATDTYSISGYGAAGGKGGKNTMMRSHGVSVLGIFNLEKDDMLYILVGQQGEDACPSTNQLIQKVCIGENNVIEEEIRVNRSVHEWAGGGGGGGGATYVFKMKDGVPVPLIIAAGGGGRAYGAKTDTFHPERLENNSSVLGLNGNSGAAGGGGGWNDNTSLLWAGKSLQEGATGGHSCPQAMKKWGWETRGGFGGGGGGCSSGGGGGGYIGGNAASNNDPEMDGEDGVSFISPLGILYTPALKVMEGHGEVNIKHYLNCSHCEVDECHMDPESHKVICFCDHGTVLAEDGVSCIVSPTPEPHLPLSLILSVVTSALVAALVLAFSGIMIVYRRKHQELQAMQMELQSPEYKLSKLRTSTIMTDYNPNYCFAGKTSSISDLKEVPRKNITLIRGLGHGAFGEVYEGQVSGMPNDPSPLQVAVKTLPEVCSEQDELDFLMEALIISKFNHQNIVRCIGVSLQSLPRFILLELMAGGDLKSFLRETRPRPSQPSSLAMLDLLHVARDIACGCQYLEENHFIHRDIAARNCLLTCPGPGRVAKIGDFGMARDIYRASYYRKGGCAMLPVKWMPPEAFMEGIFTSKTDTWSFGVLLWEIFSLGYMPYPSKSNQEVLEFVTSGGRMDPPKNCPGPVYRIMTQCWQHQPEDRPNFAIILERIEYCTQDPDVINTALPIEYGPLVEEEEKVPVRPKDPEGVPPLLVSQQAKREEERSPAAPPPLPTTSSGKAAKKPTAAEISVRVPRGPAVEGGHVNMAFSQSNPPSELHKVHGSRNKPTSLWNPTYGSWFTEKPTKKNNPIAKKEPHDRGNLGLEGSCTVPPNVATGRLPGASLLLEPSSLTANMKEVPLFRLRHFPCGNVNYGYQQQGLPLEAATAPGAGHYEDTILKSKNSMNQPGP

With `C[C@@H](Oc1cc(-c2cnn(C3CCC4(CC3)CNC4)c2)cnc1N)c1c(Cl)ccc(F)c1Cl` [Example 4, (R)-5-(1-(2-azaspiro[3.5]nonan-7-yl)-1H-pyrazol-4-yl)-3-((R)-1-(2,6-dichloro-3-fluorophenyl)ethoxy)pyridin-2-amine] the IC50 (Human ALK) was 4.31 nM and the IC50 (Human cMet) was 4.8 nM.

For `C[C@@H](Oc1cc(-c2cnn(C3CC4(CCCNC4)C3)c2)cnc1N)c1c(Cl)ccc(F)c1Cl` (stereo partly drawn) [Example 5], the IC50 (Human ALK) was 1.92 nM and the IC50 (Human cMet) was 2.09 nM.

In the case of `C[C@@H](Oc1cc(-c2cnn(C3CC4(CNC4)C3)c2)cnc1N)c1c(Cl)ccc(F)c1Cl` [Example 2, (R)-5-(1-(2-azaspiro[3.3]heptan-6-yl)-1H-pyrazol-4-yl)-3-(1-(2,6-dichloro-3-fluorophenyl)ethoxy)pyridin-2-amine], the IC50 (Human ALK) is reported as 2.21 nM.

In the case of `C[C@@H](Oc1cc(-c2cnn(C3CC4(CCNCC4)C3)c2)cnc1N)c1c(Cl)ccc(F)c1Cl` [Example 3, (R)-5-(1-(7-azaspiro[3.5]nonan-2-yl)-1H-pyrazol-4-yl)-3-((R)-1-(2,6-dichloro-3-fluorophenyl)ethoxy)pyridin-2-amine], the IC50 (Human cMet) is reported as 8.9 nM.
